According to patent US20250313527A1, “AMPHIPHILIC LIPID INCLUDING TERTIARY AMINE N-OXIDE GROUP, LIPOSOMAL DRUG-DELIVERY SYSTEM, AND USE OF AMPHIPHILIC LIPID” (HANGZHOU TITO BIOTECHNOLOGY PARTNERSHIP ENTERPRISE (LIMITED …, priority 2022, published 2025):

Assay: Plasma clearance and tissue distribution (in vivo imaging of DiR fluorescence)
Details: HepG2 tumor-bearing BALB/c nude mice, intravenous injection, FIG. 12 to FIG. 13
Method: Female BALB/c nude mice bearing HepG2 subcutaneous tumors (about 70 mm^3) were randomly divided into three groups with 3 mice in each group, and intravenously injected with DiR, ^DiRODML, or ^DiRODEL. 24 h later, blood was collected from the orbital veins of mice. 500 μL of a blood sample was taken and tested by a small animal in vivo imaging instrument for a fluorescence intensity. Mice were dissected, and tissues such as a heart, a liver, a spleen, a lung, a kidney, an intestine, and a tumor were collected. Each tissue was detected by a small animal in vivo imaging instrument for a fluorescence intensity.

DiR fluorescence signal in the blood or tissues: Almost no fluorescence signal
SMILES: CCCCCCCCCCCCCCCCCCN1/C(=C/C=C/C=C/C=C/C2=[N+](CCCCCCCCCCCCCCCCCC)c3ccccc3C2(C)C)C(C)(C)c2ccccc21.[I-] [DiR]
